Laboratory results: the NIST ThermoML archive (doi:10.1021/je049955d)

What was measured:
[1] = 298.15 K, Ring tensiometer
[2] = xn = mol fraction of the nth substance listed; details: 298.15 K, Ring tensiometer

CCC(C)=O [butanone]
Details | surface tension liquid-gas [mN/m]
[1] | 24.2

CCOCCOC(C)=O [2-ethoxyethyl ethanoate]
Details | surface tension liquid-gas [mN/m]
[1] | 28.7

CCC#N [propanenitrile]
Details | surface tension liquid-gas [mN/m]
[1] | 26.9

CCC(C)O (stereo unspecified) [butan-2-ol] + O
[2]
Details | surface tension liquid-gas [mN/m]
x1 = 0.000154 | 70.2
x1 = 0.000211 | 69.7
x1 = 0.000443 | 67.3
x1 = 0.000718 | 64.8
x1 = 0.001 | 62.6
x1 = 0.001994 | 57.5
x1 = 0.003914 | 50.9
x1 = 0.005882 | 46.4
x1 = 0.00799 | 43.1
x1 = 0.009938 | 40.6
x1 = 0.01199 | 38.5
x1 = 0.01394 | 36.8

OC1CCCC1 [cyclopentanol] + O
[2]
Details | surface tension liquid-gas [mN/m]
x1 = 0.000201 | 70.8
x1 = 0.000369 | 69.6
x1 = 0.000525 | 68.5
x1 = 0.000574 | 68
x1 = 0.000713 | 67.3
x1 = 0.000986 | 65.1
x1 = 0.001816 | 60.2
x1 = 0.002519 | 57.5
x1 = 0.002728 | 56.3
x1 = 0.003934 | 52.6
x1 = 0.005255 | 49.6
x1 = 0.005987 | 48.3
x1 = 0.008154 | 44.8
x1 = 0.01025 | 42.4
x1 = 0.01189 | 40.6
x1 = 0.01448 | 38.4

CCOCCOC(C)=O [2-ethoxyethyl ethanoate] + O
[2]
Details | surface tension liquid-gas [mN/m]
x1 = 0.000101 | 70
x1 = 0.000178 | 68.9
x1 = 0.00019 | 68.4
x1 = 0.000221 | 67.9
x1 = 0.000407 | 66
x1 = 0.00046 | 65.6
x1 = 0.000582 | 64.5
x1 = 0.000777 | 63.5
x1 = 0.000958 | 62.4
x1 = 0.001352 | 60.3
x1 = 0.003046 | 55.2
x1 = 0.005086 | 51.2
x1 = 0.007004 | 48.6
x1 = 0.01091 | 44.7
x1 = 0.013 | 43.2
x1 = 0.01497 | 41.4

OCCO [1,2-ethanediol] + O
[2]
Details | surface tension liquid-gas [mN/m]
x1 = 0.008251 | 70.8
x1 = 0.01012 | 70.7
x1 = 0.01185 | 70.4
x1 = 0.01423 | 70.2
x1 = 0.01585 | 69.7
x1 = 0.01823 | 69.6
x1 = 0.02 | 69.4
x1 = 0.02198 | 69.2
x1 = 0.02488 | 68.8
x1 = 0.02992 | 68.2
x1 = 0.03542 | 67.7
x1 = 0.0401 | 67.3
x1 = 0.04519 | 66.6
x1 = 0.101 | 62.5
x1 = 0.2 | 57.9

OC1CCCC1 [cyclopentanol]
Details | surface tension liquid-gas [mN/m]
[1] | 32.8

COC(=O)CC(C)=O [methyl 3-oxobutanoate]
Details | surface tension liquid-gas [mN/m]
[1] | 35.7

O [water]
Details | surface tension liquid-gas [mN/m]
[1] | 71.95

CC(=O)CC(C)=O [2,4-pentanedione] + O
[2]
Details | surface tension liquid-gas [mN/m]
x1 = 0.000205 | 70.7
x1 = 0.000412 | 70.1
x1 = 0.00049 | 69.9
x1 = 0.000578 | 69.5
x1 = 0.000783 | 69.1
x1 = 0.001016 | 68.3
x1 = 0.001976 | 65.5
x1 = 0.004045 | 61.4
x1 = 0.004973 | 59.8
x1 = 0.006054 | 58.3
x1 = 0.008089 | 55.6
x1 = 0.0103 | 53.3

O=C1CCCC1 [cyclopentanone] + O
[2]
Details | surface tension liquid-gas [mN/m]
x1 = 0.000186 | 71.1
x1 = 0.000367 | 70.3
x1 = 0.000559 | 69.6
x1 = 0.000768 | 68.9
x1 = 0.000966 | 68.3
x1 = 0.001362 | 67
x1 = 0.002445 | 63.6
x1 = 0.003863 | 61.1
x1 = 0.006022 | 57.8
x1 = 0.007908 | 55.5
x1 = 0.009964 | 53.7
x1 = 0.01215 | 52
x1 = 0.01428 | 50.3

OCCO [1,2-ethanediol]
Details | surface tension liquid-gas [mN/m]
[1] | 47.8

CCCCO [butan-1-ol] + O
[2]
Details | surface tension liquid-gas [mN/m]
x1 = 0.000138 | 69.4
x1 = 0.000235 | 68.8
x1 = 0.000292 | 68.1
x1 = 0.000392 | 66.9
x1 = 0.000596 | 64.4
x1 = 0.000778 | 62.5
x1 = 0.001004 | 60.4
x1 = 0.001457 | 56.5
x1 = 0.001997 | 53.9
x1 = 0.002872 | 49.2
x1 = 0.003931 | 45.8
x1 = 0.006003 | 40.7
x1 = 0.006847 | 38.3
x1 = 0.008156 | 36.4
x1 = 0.01013 | 33.7
x1 = 0.01204 | 31.1
x1 = 0.01288 | 29.9
x1 = 0.01411 | 29.1

CCOC(C)=O [ethyl acetate] + O
[2]
Details | surface tension liquid-gas [mN/m]
x1 = 0.000189 | 69.6
x1 = 0.000351 | 67.7
x1 = 0.000617 | 65.2
x1 = 0.000819 | 63.7
x1 = 0.000997 | 62.3
x1 = 0.002074 | 57.3
x1 = 0.003938 | 51.2
x1 = 0.006035 | 46.7
x1 = 0.008035 | 43.4
x1 = 0.009946 | 40.5
x1 = 0.01195 | 37.8
x1 = 0.01401 | 35.2

CCCCO [butan-1-ol]
Details | surface tension liquid-gas [mN/m]
[1] | 24.3

CCC#N [propanenitrile] + O
[2]
Details | surface tension liquid-gas [mN/m]
x1 = 0.000183 | 71.6
x1 = 0.000368 | 71
x1 = 0.000563 | 70.3
x1 = 0.000784 | 69.5
x1 = 0.000963 | 69.2
x1 = 0.001988 | 66.6
x1 = 0.003895 | 62.9
x1 = 0.005968 | 59.5
x1 = 0.008178 | 56.6
x1 = 0.01015 | 54.2
x1 = 0.012 | 52.4
x1 = 0.01434 | 49.9

CCC(C)O (stereo unspecified) [butan-2-ol]
Details | surface tension liquid-gas [mN/m]
[1] | 23.3

CC(=O)CC(C)=O [2,4-pentanedione]
Details | surface tension liquid-gas [mN/m]
[1] | 30.9

CCOC(C)=O [ethyl acetate]
Details | surface tension liquid-gas [mN/m]
[1] | 23.7

COC(=O)CC(C)=O [methyl 3-oxobutanoate] + O
[2]
Details | surface tension liquid-gas [mN/m]
x1 = 0.000186 | 71.1
x1 = 0.000411 | 70.4
x1 = 0.000609 | 69.9
x1 = 0.000793 | 69.3
x1 = 0.001003 | 68.6
x1 = 0.001822 | 66.6
x1 = 0.003971 | 62.4
x1 = 0.005842 | 60.2
x1 = 0.008086 | 57.8
x1 = 0.00996 | 56.1
x1 = 0.01206 | 54.5
x1 = 0.01404 | 53.2

O=C1CCCC1 [cyclopentanone]
Details | surface tension liquid-gas [mN/m]
[1] | 33

CCC(C)=O [butanone] + O
[2]
Details | surface tension liquid-gas [mN/m]
x1 = 5.71e-05 | 71.8
x1 = 7.54e-05 | 71.7
x1 = 8.96e-05 | 71.5
x1 = 0.000112 | 71.3
x1 = 0.000296 | 70
x1 = 0.000522 | 68.9
x1 = 0.000741 | 67.8
x1 = 0.000855 | 67.3
x1 = 0.000997 | 66.8
x1 = 0.002056 | 63.1
x1 = 0.00405 | 58.6
x1 = 0.006112 | 55.1
x1 = 0.008019 | 52.7
x1 = 0.01022 | 50.4
x1 = 0.01205 | 48.8
x1 = 0.01413 | 47.4
